Experimental data reported in US20240316047A1, “INHIBITORS OF RNA HELICASE DHX9 AND USES THEREOF” (ACCENT THERAPEUTICS, INC., priority 2022, published 2024).

Biological target: Human recombinant DHX9 protein (Homo sapiens (Human), UniProt Q08211)
Assay: DHX9 ATPase assay (ADP-Glo)
Format: biochemical
Conditions: for IC50: read-out: DHX9 Biochemical Inflection Point

Sequence of Human recombinant DHX9 protein (Q08211 whole entry): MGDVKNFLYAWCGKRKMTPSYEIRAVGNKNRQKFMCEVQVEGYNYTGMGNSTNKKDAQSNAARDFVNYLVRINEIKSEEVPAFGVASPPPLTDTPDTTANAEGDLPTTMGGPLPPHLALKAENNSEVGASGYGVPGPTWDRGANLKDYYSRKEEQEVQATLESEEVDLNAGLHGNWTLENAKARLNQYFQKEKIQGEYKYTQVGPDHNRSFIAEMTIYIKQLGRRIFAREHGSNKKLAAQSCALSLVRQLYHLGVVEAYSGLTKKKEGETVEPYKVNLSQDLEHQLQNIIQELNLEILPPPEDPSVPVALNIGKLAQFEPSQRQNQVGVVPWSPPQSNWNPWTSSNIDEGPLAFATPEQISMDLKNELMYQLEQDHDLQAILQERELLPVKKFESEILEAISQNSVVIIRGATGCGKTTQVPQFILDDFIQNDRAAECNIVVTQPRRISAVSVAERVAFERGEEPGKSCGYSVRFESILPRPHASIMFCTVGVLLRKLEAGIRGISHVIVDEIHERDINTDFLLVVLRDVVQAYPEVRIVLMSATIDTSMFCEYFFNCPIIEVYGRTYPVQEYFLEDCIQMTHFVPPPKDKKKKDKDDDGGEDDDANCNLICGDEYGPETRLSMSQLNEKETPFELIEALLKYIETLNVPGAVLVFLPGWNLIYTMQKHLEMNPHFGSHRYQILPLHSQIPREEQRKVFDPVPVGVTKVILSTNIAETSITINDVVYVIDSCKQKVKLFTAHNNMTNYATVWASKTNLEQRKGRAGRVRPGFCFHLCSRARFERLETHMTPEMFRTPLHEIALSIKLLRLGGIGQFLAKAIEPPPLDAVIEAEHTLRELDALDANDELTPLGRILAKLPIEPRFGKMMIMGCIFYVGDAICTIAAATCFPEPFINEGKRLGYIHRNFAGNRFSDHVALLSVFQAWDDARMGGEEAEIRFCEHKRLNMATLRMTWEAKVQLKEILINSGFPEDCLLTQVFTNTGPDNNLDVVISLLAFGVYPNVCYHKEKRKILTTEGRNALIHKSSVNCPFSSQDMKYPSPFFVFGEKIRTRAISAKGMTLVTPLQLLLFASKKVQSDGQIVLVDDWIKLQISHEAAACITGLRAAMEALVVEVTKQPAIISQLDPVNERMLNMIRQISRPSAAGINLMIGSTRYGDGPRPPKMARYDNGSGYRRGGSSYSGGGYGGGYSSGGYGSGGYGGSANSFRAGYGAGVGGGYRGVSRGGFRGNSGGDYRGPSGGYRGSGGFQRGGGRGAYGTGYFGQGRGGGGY

| SMILES | DHX9 Biochemical Max Inhibition | IC50 [nM] |
| --- | --- | --- |
| CS(=O)(=O)Nc1cc(Br)cc(NC(=O)c2cnn(-c3ccc(N4CCOCC4)cn3)c2)c1 [Example 55] | 48.6% | 9.9 |
| Cc1cc(C(=O)Nc2cc(Cl)cc(NS(C)(=O)=O)c2)cn1-c1ncc(F)cc1-c1cncc(F)c1 [Example 666] | 78.4 | 121 |
| Cc1ccc(OCc2cccc(F)c2)c(-n2cc(C(=O)Nc3cc(Cl)cc(NS(C)(=O)=O)c3)cn2)n1 [Example 204] | 68.9% | 9.6 |
| CC(=O)N1CCN(c2cc(F)cnc2-c2cc(C(=O)Nc3cc(Cl)cc(NS(C)(=O)=O)c3)sc2C)CC1 [Example 504] | 65.9 | 23.5 |
| CS(=O)(=O)Nc1cc(Br)cc(NC(=O)c2cc(-c3ccccn3)n(CC#N)c2)c1 [Example 95, N-(3-bromo-5-methanesulfonamidophenyl)-1-(cyanomethyl)-5-(pyridin-2-yl)-1H-pyrrole-3-carboxamide] | 59.2% | 20.5 |
| CN1CCC(n2cc(C(=O)Nc3cc(Cl)cc(NS(C)(=O)=O)c3)cn2)CC1=O (centres unmarked) [Example 307] | 70.4% | 143 |
| Cc1cc(N2CC(F)(F)C2)cnc1-c1cc(C(=O)Nc2cc(Cl)cc(NS(C)(=O)=O)c2)cn1C [Example 461] | 46.1 | 53.9 |
| CN1CC[C@@H](Oc2cnc(-c3cc(C(=O)Nc4cc(Cl)cc(NS(C)(=O)=O)c4)cn3C)c(F)c2)C1 [Example 640] | 59 | 7 |
| Cc1sc(C(=O)Nc2cc(Cl)cc(NS(C)(=O)=O)c2)cc1-c1ncc(P(C)(C)=O)cn1 [Example 648] | 69.1 | 6.9 |
| Cn1cc(C(=O)Nc2cc(Cl)cc(NS(C)(=O)=O)c2)cc1-c1ncc(OC2CN(CC(F)(F)F)C2)cc1F [Example 615] | 73.9 | 52.6 |
| COc1ccc(-c2cc(C(=O)Nc3cc(Cl)cc(NS(C)(=O)=O)c3)sc2C)nc1 [Example 352] | 84.1% |  |
| CC(=O)N1CCC(c2cnc(-c3cc(C(=O)Nc4cc(Cl)cc(NS(C)(=O)=O)c4)sc3C)nc2)CC1 [Example 699] | 93.6 | 2.2 |
| CCn1cc(C(=O)Nc2cc(Cl)cc(NS(C)(=O)=O)c2)cc1-c1ccc(N2CCOCC2)cn1 [Example 274] | 72.1% | 32.2 |
| Cc1cc(C(=O)Nc2cc(Cl)cc(NS(C)(=O)=O)c2)cn1-c1ncc(OC(C)(C)C)cn1 [Example 664] | 68.8 | 87.7 |
| Cc1sc(C(=O)Nc2cc(Cl)cc(NS(C)(=O)=O)c2)cc1-c1ncc(N2CCC(F)(F)C2)cc1F [Example 484] | 66.5 | 33.5 |
| Cc1cc(C(=O)Nc2cc(Cl)cc(NS(C)(=O)=O)c2)cn1-c1ncc(N2CCC3(C2)CC3(F)F)cc1F (centres unmarked) [Example 414] | 58.3 | 50.6 |
| Cn1cc(C(=O)Nc2cc(Cl)cc(NS(C)(=O)=O)c2)cc1-c1ncc(N2CCC3(C2)CC3(F)F)cn1 (centres unmarked) [Example 494] | 55.9 | 26.9 |
| Cc1cc(C(=O)Nc2cc(Cl)cc(NS(C)(=O)=O)c2)cn1-c1ccc(N2CCOCC2)cn1 [Example 93] | 70.6% | 1.7 |
| CS(=O)(=O)Nc1cc(F)cc(NC(=O)c2cc(-c3cccnc3)cs2)c1 [Example 105, N-(3-fluoro-5-(methylsulfonamido)phenyl)-4-(pyridin-3-yl)thiophene-2-carboxamide] | 71.7% | 80.3 |

| SMILES | DHX9 Biochemical Max Inhibition | IC50 [nM] |
| --- | --- | --- |
| CS(=O)(=O)Nc1cc(Br)cc(NC(=O)c2cc(-n3cccn3)cs2)c1 [Example 60] | 63% | 7.8 |
| CS(=O)(=O)Nc1cc(Cl)cc(NC(=O)c2cc(-c3ncccc3OCc3cnco3)cs2)c1 [Example 215] | 75.4% | 4 |
| COc1cnn(-c2csc(C(=O)Nc3cc(Cl)cc(NS(C)(=O)=O)c3)c2)c1 [Example 435] | 79.1 | 8.7 |
| Cc1cc(C#N)cnc1-c1cc(C(=O)Nc2cc(Cl)cc(NS(C)(=O)=O)c2)sc1C [Example 376] | 64.1% |  |
| CS(=O)(=O)Nc1cc(Cl)cc(NC(=O)c2cnn(C3CCOCC3)c2)c1 [Example 131, N-(3-chloro-5-(methylsulfonamido)phenyl)-1-(tetrahydro-2H-pyran-4-yl)-1H-pyrazole-4-carboxamide] | 55.9% | 151 |
| Cn1cc(C(=O)Nc2cc(Cl)cc(NS(C)(=O)=O)c2)cc1-c1ncc(N2CCN(C(=O)C3CC3)CC2)cc1F [Example 714] | 68.7 | 5.3 |
| CCS(=O)(=O)Nc1cc(Cl)cc(NC(=O)c2cc(-c3ncc(C(F)(F)F)cn3)c(C)s2)c1 [Example 366] | 76.2% | 46.7 |
| CC(Oc1cccnc1-n1cc(C(=O)Nc2cc(Cl)cc(NS(C)(=O)=O)c2)cn1)c1ccccc1 (centres unmarked) [Example 62] | 58.4% | 211 |
| CS(=O)(=O)Nc1cc(Br)cc(NC(=O)c2cnn(-c3cccc(C#N)c3)c2)c1 [Example 52] | 37.9% | 198 |
| Cn1cc(C(=O)Nc2cc(Cl)cc(NS(C)(=O)=O)c2)cc1Br [Example 83, 5-bromo-N-(3-chloro-5-(methylsulfonamido)phenyl)-1-methyl-1H-pyrrole-3-carboxamide] | 60.7% | 47.8 |
| CS(=O)(=O)Nc1cc(Cl)cc(NC(=O)c2cnn(-c3ncccc3OCc3cnco3)c2)c1 [Example 66] | 62.9% | 56.6 |
| CS(=O)(=O)Nc1cc(Br)cc(NC(=O)c2cnn(-c3ccccc3C=O)c2)c1 [Example 58] | 44.4% | 84.9 |
| CC(=O)N1CCN(c2ccc(-n3cc(C(=O)Nc4cc(Br)cc(NS(C)(=O)=O)c4)cn3)nc2)CC1 [Example 86, 1-(5-(4-acetylpiperazin-1-yl)pyridin-2-yl)-N-(3-bromo-5-(methylsulfonamido)phenyl)-1H-pyrazole-4-carboxamide] | 51.5% | 18.4 |
| Cc1nc(COc2cc(F)cnc2-c2cc(C(=O)Nc3cc(Cl)cc(NS(C)(=O)=O)c3)cn2C)cs1 [Example 724] | 80.4 | 19.7 |
| Cn1cc(C(=O)Nc2cc(Cl)cc(NS(C)(=O)=O)c2)cc1-c1ncc(F)cc1C#N [Example 546] | 73.6 | 13.1 |
| CS(=O)(=O)Nc1cc(Br)cc(NC(=O)c2cnn(-c3cccc(C(F)F)n3)c2)c1 [Example 56] | 48.8% | 197 |
| CS(=O)(=O)Nc1cc(Cl)cc(NC(=O)c2cnn(-c3ccc(S(C)(=O)=O)cn3)c2)c1 [Example 198] | 60.7% | 71.3 |
| CS(=O)(=O)Nc1cc(Cl)cc(NC(=O)c2cc3c(s2)CCC3Oc2cccnc2)c1 (centres unmarked) [Example 687] | 68.1 | 119 |
| Cn1cc(C(=O)Nc2cc(Cl)cc(NS(C)(=O)=O)c2)cc1-c1ncc(N2CCC3(CC2)COC3)cc1F [Example 475] | 64.7 | 13.6 |
